From article PMC7376718, “Flavonoids isolated from the South African weed Chromolaena odorata (Asteraceae) have pharmacological activity against uropathogens” (BMC Complementary Medicine and Therapies, 2020)
In brackets after ≈: the same amount, converted by molar mass. Like-named read-outs stand apart in the source and are kept apart here.

Assays:
S. aureus [1] = tested on: S. aureus; parameters: method as in earlier work; settings: ref [70] Teffo et al.; cited from earlier work
[2] = tested on: E. coli (ATCC 25922) biofilm; assay: Biofilm inhibition, crystal violet staining; format: cell-based, Escherichia coli; settings: planktonic (0 h) and biofilm (24 h) stages, 1 mg/mL and MIC level
Description: A single colony of E. coli (ATCC 25922) and S. aureus (ATCC 29213), strains were each inoculated into TSB and incubated for 24 h. The biofilm inhibition assay was carried out by adopting the method described by […] et al.. Two stages; planktonic, T0 and biofilm formation, T24 were investigated against the 24 h prepared bacterial cultures. One hundred microliters of each standardised bacterial culture (OD590 1 × 10^6 cfu/mL) was aliquoted into wells of a sterile flat bottomed 96-well microplate. Plates prepared for 24 h biofilm formation were immediately sealed with an adhesive sealer, placed in the incubator and incubated for 24 h at 37 °C. […] To the plates prepared for 0 h, the samples were added immediately. Wells containing cultures only, as well as acetone and sterile distilled water used to prepare the samples were included as controls. […] From the wells, 100 μL of the destaining solution was transferred to a new plate and semi-quantitative assessment of biofilm formation was done by measuring absorbance at 590 nm using SoftMax […] software on a microplate reader (SpectraMax M2). The mean absorbance of the samples was determined, and percentage inhibition was obtained using the equation below: percentage inhibiton=mean of culture control-mean of sample/mean of culture controlx100

[3] = tested on: S. aureus (ATCC 29213) biofilm; assay: Biofilm inhibition, crystal violet staining; format: cell-based, Staphylococcus aureus; settings: for Biofilm inhibition (verdict in words): planktonic (0 h) and biofilm (24 h) stages, 1 mg/mL and MIC level
Description: A single colony of E. coli (ATCC 25922) and S. aureus (ATCC 29213), strains were each inoculated into TSB and incubated for 24 h. The biofilm inhibition assay was carried out by adopting the method described by […] et al.. Two stages; planktonic, T0 and biofilm formation, T24 were investigated against the 24 h prepared bacterial cultures. One hundred microliters of each standardised bacterial culture (OD590 1 × 10^6 cfu/mL) was aliquoted into wells of a sterile flat bottomed 96-well microplate. Plates prepared for 24 h biofilm formation were immediately sealed with an adhesive sealer, placed in the incubator and incubated for 24 h at 37 °C. […] To the plates prepared for 0 h, the samples were added immediately. Wells containing cultures only, as well as acetone and sterile distilled water used to prepare the samples were included as controls. All plates after the addition of samples were sealed and incubated for 24 h to enable the samples to react with the biofilms. The incubated plates were washed with sterile distilled water three to four times after incubation to remove the unattached cells and were placed in the oven at 60 °C for 45 min. To all wells, 100 μL of 1% crystal violet dissolved in distilled water was added and plates were incubated for 15 min at room temperature after which the plates were washed again with sterile distilled water to remove unabsorbed stain. One hundred and twenty-five microliters of 100% ethanol was added to destain the wells. From the wells, 100 μL of the destaining solution was transferred to a new plate and semi-quantitative assessment of biofilm formation was done by measuring absorbance at 590 nm using SoftMax […] software on a microplate reader (SpectraMax M2). The mean absorbance of the samples was determined, and percentage inhibition was obtained using the equation below: percentage inhibiton=mean of culture control-mean of sample/mean of culture controlx100

S. aureus [4] = assay: Cell adhesion to BSA-coated polystyrene surface; format: cell-based, Staphylococcus aureus; settings: 1 mg/mL, polystyrene microplate
Description: (§1) Anti-adhesion activity of isolated compounds was determined using the method of Namasivayam and Vivek with slight modification. To a sterile 96-well flat-bottomed polystyrene microtititre plate, 150 μL of freshly prepared 1% lyophilized powdered globular protein BSA, dissolved in water was added to all wells except for the wells allocated for media only. The plates were incubated for 30 min at 30 °C. Following incubation the wells were washed three times with PBS. To the wells, 50 μL of bacterial cultures equivalent to 1 × 10^6 cfu/mL read at 590 nm, prepared from overnight cultures were added. […] The seeded microtitre plates were incubated for 24 h at 37 °C. Non-adhered cells were washed five times with PBS at room temperature. Adhered cells were stained by the addition of 50 μL of 0.1% crystal violet and further incubation for a further 30 min at room temperature. Afterwards, wells were washed with sterile distilled water to remove excess stain followed by the addition of 10 μL of absolute ethanol to fix the adhered cells. Finally, 50 μL of 0.2% Triton X was added to the wells to lyse the cells and the absorbance was read at 570 nm using a microplate reader. Percentage adherence inhibition was calculated using the formula above.

[5] = tested on: S. aureus, E. coli (1), E. coli (2), E. coli (3), K. pneumoniae; assay: Mean MIC over the bacterial strains; format: cell-based; settings: mean over the five bacterial strains of Table 3
Excerpt: The cultures used were Escherichia coli (American Type Culture Collection, ATCC 25922) labelled as 1, E. coli isolates (B1989/17 and B1962/17) labelled as 2 and 3 from equine urine, collected from the Department of Veterinary Tropical Diseases, Faculty of Veterinary Science, University of Pretoria, South Africa, Klebsiella pneumoniae isolate from commercial chicken eggs, Enterococcus faecalis (ATCC 29212), Pseudomonas aeruginosa (ATCC 27853), Staphylococcus aureus (ATCC 29213), Candida albicans from a Gouldian finch, Aspergillus fumigatus from a chicken and Cryptococcus neoformans from a cheetah. These microbial strains were maintained on MHA or SDA for bacteria and fungi respectively, while the isolates were maintained on blood agar.
Ten mg/mL of each fraction and 1 mg/mL of isolated compounds were prepared in 10% DMSO and tested against S. aureus, E. coli, K. pneumoniae, E. faecalis, P. aeruginosa, C. albicans, C. neoformans and A. fumigatus. Cultures were prepared by inoculating each microbial strain from prepared agar plates into sterilized MHB for bacterial and SDB for fungi in sterile McCartney bottles respectively. The inoculums were placed in an orbital shaker incubator. Bacterial strains were incubated at 37 °C for 18 h. Each bacterial culture was diluted in fresh MHB and the absorbance was measured at a wavelength of 560 nm using a microplate reader (Epoch Biotek). The readings were compared to a McFarland standard No. 1 correlating to approximately 3 × 10^8 cfu/mL). For fungi strains, cultures were incubated at 30 °C for 24 h (C. albicans), 72 h (C. neoformans) and 120 h (A. fumigatus) respectively. The resultant cells and spores were washed with sterile normal saline and absorbance was measured at a wavelength of 560 nm and turbidity was adjusted to a McFarland standard 1.This was further diluted in a 1:10 ratio in SDB to a turbidity of 5 × 10^5 cfu/mL. These diluted cultures (bacterial and fungi) were used for the screening following the serial microdilution method of Eloff.

E. coli [6] = tested on: E. coli; parameters: method as in earlier work; settings: ref [70] Teffo et al.; cited from earlier work
E. coli [7] = assay: Cell adhesion to BSA-coated polystyrene surface; format: cell-based, Escherichia coli; settings: 1 mg/mL, polystyrene microplate
Description: as §1

S. aureus [8] = assay: Metabolic activity inhibition (INT); format: cell-based, Staphylococcus aureus
Description: The ability of the isolated compounds to inhibit the bacterial metabolic activity was tested against E. coli and S. aureus following the method used by Ramage and Lopez-Ribot with slight modification. The organisms were inoculated in a 96-well microplate following the same biofilm assay procedure described above. The final concentration of each compound in the wells was 0.016 mg/mL, 0.031 mg/mL, 0.063 mg/mL, 0.125 mg/mL and 1 mg/mL respectively. After 24 h of incubation with samples, the plates were washed three times with sterile distilled water and 50 μL of 1 mg/mL INT was added to each well and further incubated in the dark for 2 h. After incubation, absorbance was read at 490 nm using a microplate reader and the percentages of reduction of bacterial metabolic activity in the presence of different concentrations of compounds were calculated using the formula:
percentage inhibiton=mean of culture control−mean of sample/mean of culture controlx100

| Structure (SMILES) | MIC / antibacterial activity (S. aureus [1]) | Biofilm inhibition (verdict in words) [2] | Biofilm inhibition ([3]; at 24 h) | Biofilm inhibition (verdict in words) [3] | Adherence inhibition (verdict in words) (S. aureus [4]) | MIC [5] | MIC / antibacterial activity (E. coli [6]) | Adherence inhibition (verdict in words) (E. coli [7]) | Metabolic activity inhibition (verdict in words) (S. aureus [8]) | Mean MIC [5] | Metabolic activity inhibition (verdict in words) (S. aureus [8]; planktonic stage, MIC of 0.063 mg/mL) |
| --- | --- | --- | --- | --- | --- | --- | --- | --- | --- | --- | --- |
| COc1ccc(-c2oc3cc(OC)cc(O)c3c(=O)c2OC)cc1 [Compound 3, 5-hydroxy-3,7,4′-trimethoxyflavone] | no activity was recorded | good and good activity and good inhibitory activity | higher than 50% | good and good inhibitory activity | weak | 140 µg/mL (≈ 426 µM) | no activity was recorded | weak | good | – | – |
| COc1ccc(C2CC(=O)c3c(OC)cc(OC)cc3O2)cc1 (racemic) [Compound 2, (±)-4′,5,7-trimethoxy flavanone] | – | good and good activity and good inhibitory activity | – | good and poor inhibition and good inhibitory activity | weak | 50 ± 40 µg/mL (≈ 159 µM) | – | weak | good | 50 µg/mL | did not show inhibition |
